Reference: US12398087B2, “Methods of making bempedoic acid and compositions of the same” (Esperion Therapeutics, Inc., priority 2019, dated 2025)

Legend:
[1] = Water sorption by dynamic vapor sorption; format: physicochemical; settings: crystalline form; relative humidity of 80%, temperature of 25° C.
Experimental: The crystalline form of the compound of formula (V) may also be characterized according to its water sorption properties. […] In certain embodiments, the crystalline form of the compound of formula (V) has a water sorption isotherm, when measured at 25° C., substantially the same as shown in FIG. 6.

[2] = Thermogravimetric analysis (TGA); format: physicochemical; settings: crystalline form; heated at 10° C./minute from ~25° C. to about 315° C.
Experimental: Thermogravimetric analysis (TGA) data for the crystalline form of the compound of formula (V) were collected using a TA Discovery 550 TGA instrument. The TGA instrument was calibrated using a nickel reference standard. Samples of the crystalline form of the compound of formula (V) were placed in open platinum sample pans and heated at a rate of 10° C./minute from about ambient temperature (˜ 25° C.) to about 315° C.

change in mass, as determined by dynamic vapor sorption [1]: about 0.03%
Compound: CC(C)(CCCCCC(O)CCCCCC(C)(C)C(=O)O)C(=O)O [compound of formula (V), 8-hydroxy-2,2,14,14-tetramethylpentadecanedioic acid]
weight loss in TGA curve [2]: negligible weight loss prior to decomposition occurring
